Assay results published in patent US7976843B2, “Method for screening peptides for use in immunotherapy” (Institut National de la Santa et de la Recherche Medicale …, priority 2000, dated 2011).

Test system: RMA-HHD cells infected with vac-HIVgag, vac-neu, vac-gp100 or flu PR8
Design: species or system HHD mice
Settings: mouse, in vivo

Sequence | killing of RMA-HHD cells infected with virus expressing the antigen vs vac-WT
PLTSIISAV [HER-2/neu 650] | kill target cells infected with vac-neu, but not targets infected with vac-WT
ILLVVVLGV [HER-2/neu 661] | exception
